Experimental data published in patent US12478626B2, “Kinase mutants and uses thereof” (SIB Swiss Institute of Bioinformatics, priority 2017, dated 2025).

test system: Zap-70 mutants in P116 cells; experiment: Inhibition of IL-2 production by TKI at two concentrations, Zap-70 mutants versus WT; conditions: 500 nM and 1 or […], 24 h and 48 h

| Compound | inhibition in production of IL-2 in mutants compared to Zap-70 WT |
| --- | --- |
| C=CC(=O)Nc1cccc(Nc2nc(Nc3ccc(N4CCN(C(C)=O)CC4)cc3OC)ncc2C(F)(F)F)c1 [CO-1686] | No significantly different inhibition |
| C#Cc1cccc(Nc2ncnc3cc(OCCOC)c(OCCOC)cc23)c1 [Erlotinib] | higher in mutants than WT |
| CS(=O)(=O)CCNCc1ccc(-c2ccc3ncnc(Nc4ccc(OCc5cccc(F)c5)c(Cl)c4)c3c2)o1 [Lapatinib] | increase of cell response |
| CCOc1cc2ncc(C#N)c(Nc3ccc(OCc4ccccn4)c(Cl)c3)c2cc1NC(=O)/C=C/CN(C)C [Neratinib] | No significantly different inhibition |
| Crizotinib | increase of cell response |

target: T1, wild type Zap-70 (Homo sapiens, UniProt P43403); experiment: not given; conditions: Karaman et al.; cited from earlier work
T1 sequence (P43403 1-619): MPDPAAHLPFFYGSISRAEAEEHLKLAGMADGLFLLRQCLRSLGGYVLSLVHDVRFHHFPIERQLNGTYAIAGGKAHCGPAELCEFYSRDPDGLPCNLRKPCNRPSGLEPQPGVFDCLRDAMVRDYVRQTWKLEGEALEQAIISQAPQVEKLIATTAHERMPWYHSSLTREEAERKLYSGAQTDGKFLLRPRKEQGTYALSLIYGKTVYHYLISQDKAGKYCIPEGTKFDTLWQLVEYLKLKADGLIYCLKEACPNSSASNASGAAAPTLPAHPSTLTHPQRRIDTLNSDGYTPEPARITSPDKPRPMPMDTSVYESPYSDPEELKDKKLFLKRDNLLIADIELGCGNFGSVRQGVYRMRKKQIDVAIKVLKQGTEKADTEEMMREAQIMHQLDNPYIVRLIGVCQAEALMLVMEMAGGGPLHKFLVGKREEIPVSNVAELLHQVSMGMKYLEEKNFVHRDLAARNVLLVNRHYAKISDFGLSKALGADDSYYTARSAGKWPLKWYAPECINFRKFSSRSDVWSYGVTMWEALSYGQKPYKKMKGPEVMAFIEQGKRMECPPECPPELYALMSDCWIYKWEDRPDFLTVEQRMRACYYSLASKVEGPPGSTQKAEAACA

| Compound | inhibitory effect on the wild type Zap-70 |
| --- | --- |
| CS(=O)(=O)CCNCc1ccc(-c2ccc3ncnc(Nc4ccc(OCc5cccc(F)c5)c(Cl)c4)c3c2)o1 [Lapatinib] | no or little inhibitory effect |
